In patent publication US20210386367A1, “DEVICES AND SYSTEMS FOR GASTROINTESTINAL MICROBIOME DETECTION AND MANIPULATION” (Progenity, Inc., priority 2018, published 2021):
In brackets after ≈: the same amount, converted by molar mass. Read-outs that look alike come from different tables or passages of the source.

How the values were obtained:
E. coli ATCC 25922 = assay: Broth microdilution MIC (time-kill study); assay type: cell-based, Escherichia coli
[1] = tested on: E. coli ATCC 35218 (TEM-1 β-lactamase producer); assay: Broth microdilution MIC (time-kill study); assay type: cell-based, Escherichia coli
S. pneumoniae ATCC 49619 [2] = assay: Broth microdilution MIC (time-kill study); assay type: cell-based, Streptococcus pneumoniae
S. pneumoniae ATCC 49619 [3] = details: cited from earlier work
Clostridium spp. = assay: Agar dilution MIC, 10 clinical isolates; assay type: cell-based
Pseudomonas aeruginosa = assay: Broth microdilution MIC, 50 clinical isolates; assay type: cell-based
In short: (§1)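 CLSI broth microdilution in cation-adjusted Mueller Hinton broth, with 3% lysed horse blood added for streptococci. Two-fold dilutions, inoculum ~5×10^5 CFU/mL, 35° C for 16-24 hr in ambient air (streptococci with CO2 planchets). MIC = lowest concentration inhibiting visible growth.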

Enterobacter aerogenes = assay: Broth microdilution MIC, 50 clinical isolates; assay type: cell-based
In short: as §1

Proteus mirabilis = assay: Broth microdilution MIC, 50 clinical isolates; assay type: cell-based
In short: as §1

B. vulgatus ATCC 8482 = assay: Time-kill assay; assay type: cell-based, Bacteroides vulgatus; details: 2×, 4×, 8× MIC; 2, 6, 24, 48 hr
[4] = 10 Clostridium spp. clinical isolates

## CN[C@H](CC(C)C)C(=O)N[C@H]1C(=O)N[C@@H](CC(N)=O)C(=O)N[C@H]2C(=O)N[C@H]3C(=O)N[C@H](C(=O)N[C@H](C(=O)O)c4cc(O)cc(O)c4-c4cc3ccc4O)[C@H](O)c3ccc(c(Cl)c3)Oc3cc2cc(c3O[C@@H]2O[C@H](CO)[C@@H](O)[C@H](O)[C@H]2O[C@H]2C[C@](C)(N)[C@H](O)[C@H](C)O2)Oc2ccc(cc2Cl)[C@H]1O [vancomycin, Vancomycin]
E. coli ATCC 25922; Escherichia coli, ATCC25922, E. coli ATCC 25922, read-out: MIC
  MIC: > 16 µg/mL
[1]; Escherichia coli, ATCC35218, E. coli ATCC 35218, read-out: MIC
  MIC: > 16 µg/mL
S. pneumoniae ATCC 49619 [2]; Streptococcus pneumoniae, ATCC49619, S. pneumoniae ATCC 49619, read-out: MIC
  MIC: 0.25 µg/mL (≈ 0.173 µM)
S. pneumoniae ATCC 49619 [3]
  CLSI QC range (MIC): (0.12-0.5) μg/mL

## CO[C@H]1/C=C/O[C@@]2(C)Oc3c(C)c(O)c4c(O)c(c5c(nc6cc(C)ccn65)c4c3C2=O)NC(=O)/C(C)=C\C=C\[C@H](C)[C@H](O)[C@@H](C)[C@@H](O)[C@@H](C)[C@H](OC(C)=O)[C@@H]1C [rifaximin]
E. coli ATCC 25922; E. coli ATCC 25922
  MIC: 8 µg/mL (≈ 10.2 µM)
E. coli ATCC 25922; broth microdilution
  MIC: 8 µg/mL (≈ 10.2 µM)
[1]; E. coli ATCC 35218
  MIC: 4 µg/mL (≈ 5.09 µM)
[1]; broth microdilution
  MIC: 4 µg/mL (≈ 5.09 µM)
S. pneumoniae ATCC 49619 [2]; S. pneumoniae ATCC 49619
  MIC: 0.06 µg/mL (≈ 0.0763 µM)
S. pneumoniae ATCC 49619 [2]; broth microdilution
  MIC: 0.06 µg/mL (≈ 0.0763 µM)
Clostridium spp.
  MIC50: > 64 µg/mL
  MIC90: > 64 µg/mL
Clostridium spp.; [4]
  MIC50: >64 µg/mL
  MIC90: >64 µg/mL
Clostridium spp.; modal MIC, 10 Clostridium spp. clinical isolates
  Mode: >64 µg/mL
Pseudomonas aeruginosa
  MIC50: 8 µg/mL (≈ 10.2 µM)
  MIC90: 16 µg/mL (≈ 20.4 µM)
  Mode: 8 µg/mL
Pseudomonas aeruginosa; 4 μg/mL
  Cumulative percentage of isolates inhibited at MIC: 16.0%
  Number of test isolates at MIC: 8
Pseudomonas aeruginosa; 8 μg/mL
  Cumulative percentage of isolates inhibited at MIC: 66.0%
  Number of test isolates at MIC: 25
Pseudomonas aeruginosa; 16 μg/mL
  Cumulative percentage of isolates inhibited at MIC: 94.0%
  Number of test isolates at MIC: 14
Pseudomonas aeruginosa; 32 μg/mL
  Cumulative percentage of isolates inhibited at MIC: 96.0%
  Number of test isolates at MIC: 1
Pseudomonas aeruginosa; 64 μg/mL
  Cumulative percentage of isolates inhibited at MIC: 98.0%
  Number of test isolates at MIC: 1
Pseudomonas aeruginosa; >64 μg/mL
  Cumulative percentage of isolates inhibited at MIC: 100.0%
  Number of test isolates at MIC: 1
Enterobacter aerogenes
  MIC50: 16 µg/mL (≈ 20.4 µM)
  MIC90: 64 µg/mL (≈ 81.4 µM)
  Mode: 16 µg/mL
Enterobacter aerogenes; 8 μg/mL
  Cumulative percentage of isolates inhibited at MIC: 20.0%
  Number of test isolates at MIC: 10
Enterobacter aerogenes; 16 μg/mL
  Cumulative percentage of isolates inhibited at MIC: 64.0%
  Number of test isolates at MIC: 22
Enterobacter aerogenes; 32 μg/mL
  Cumulative percentage of isolates inhibited at MIC: 88.0%
  Number of test isolates at MIC: 12
Enterobacter aerogenes; 64 μg/mL
  Cumulative percentage of isolates inhibited at MIC: 98.0%
  Number of test isolates at MIC: 5
Enterobacter aerogenes; >64 μg/mL
  Cumulative percentage of isolates inhibited at MIC: 100.0%
  Number of test isolates at MIC: 1
Proteus mirabilis
  MIC50: 4 µg/mL (≈ 5.09 µM)
  MIC90: 8 µg/mL (≈ 10.2 µM)
  Mode: 4 µg/mL
Proteus mirabilis; 4 μg/mL
  Cumulative percentage of isolates inhibited at MIC: 84.0%
  Number of test isolates at MIC: 42
Proteus mirabilis; 8 μg/mL
  Cumulative percentage of isolates inhibited at MIC: 96.0%
  Number of test isolates at MIC: 6
Proteus mirabilis; >64 μg/mL
  Cumulative percentage of isolates inhibited at MIC: 100.0%
  Number of test isolates at MIC: 2
B. vulgatus ATCC 8482
  time-kill kinetics outcome (bactericidal = ≥3 log reduction in CFU per mL): bactericidal against this organism at 8×MIC at 6 hr; and at 2 and 4×MIC at 6, 24 and 48 hr
